The results in this text go back to PubChem BioAssay AID463098 (The Scripps Research Institute Molecular Screening Center, 2010).

Activity calls are given as the source filed them.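 The calls were made as follows: active = compounds that block at least 90% of GSTO1 probe labeling in cell lysate; inactive = the rest.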

The target in the assay is Glutathione S-transferase omega-1 (Homo sapiens) (UniProt P78417). Nature of the assay: native GSTO1 blockade in soluble lysate – cell lysate, MDA-MB-435 proteome, gel ABPP, SE-Rh, percent inhibition, late-stage follow-up (AID 463098). To be noted: gel ABPP SE-Rh fluorescence, at 1 µM, hits give high values.
Sequence of Glutathione S-transferase omega-1 (Homo sapiens) (P78417 whole entry, looked up): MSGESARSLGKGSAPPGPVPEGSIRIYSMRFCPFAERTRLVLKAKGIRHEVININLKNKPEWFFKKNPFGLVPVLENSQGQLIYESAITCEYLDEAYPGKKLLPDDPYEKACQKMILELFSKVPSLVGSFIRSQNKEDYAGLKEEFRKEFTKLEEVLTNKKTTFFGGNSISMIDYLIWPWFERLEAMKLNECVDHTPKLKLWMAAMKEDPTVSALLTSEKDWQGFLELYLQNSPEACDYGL
What is called inhibition is the relative decrease from the control value, in per cent. Regarding `CCCCCn1c(=O)c2ccccc2n2c(CCl)nnc12`, the inhibition is 73% (inactive). Next, `O=c1[nH]c(CCl)nc2cc(-c3ccc(F)cc3)sc12`: 100%; `COc1ccc(C(CCN(Cc2ccc(OC)c(OC)c2)C(=O)CCl)c2ccccc2)cc1` (configuration not stated): 100%. To `O=C(NCCc1ccccc1)C(c1cccs1)N(C(=O)CCl)c1ccc(Cl)cc1` (configuration not stated) belongs 88% (inactive).

Consider `Cc1cccc(N(Cc2cc(=O)[nH]c3ccccc23)C(=O)CCl)c1`, for which the inhibition is 82% (inactive). Next, `COc1cc2c(cc1OC)C(c1cc(Br)ccc1F)N(C(=O)CCl)CC2` (configuration not stated): 80% (inactive).

Consider `O=C(O)C1Cc2ccccc2CN1C(=O)CCl` (configuration not stated), for which the inhibition is 84% (inactive).

`COc1cccc(N(C(=O)CCl)C(C(=O)NCCc2ccccc2)c2cccs2)c1` (configuration not stated): the inhibition was 75% (inactive). On to `O=c1cc(CCl)nc2sc3ccccc3n12`, for which the inhibition was 83% (inactive). Next, `O=C(CCl)N1c2ccccc2OCC1c1ccccc1` (configuration not stated): 37% (inactive); `CN(Cc1ccc(Cl)cc1)C(=O)CCl`: 18% (inactive). Next, `CN(C)C(=O)CN1CCN(C(=O)CCl)CC1`: 3% (inactive); `O=C(CCl)N1c2ccccc2SCC1c1ccccc1` (configuration not stated): 65% (inactive). Next, `CCOC(=O)N1CCN(C(=O)CCl)CC1`: 22% (inactive). Turning to `COc1ccccc1NS(=O)(=O)c1ccc2nc(CCl)[nH]c2c1`, the inhibition is 88% (inactive).

Turning to `O=C(NC1CCCCC1)C(c1cccnc1)N(C(=O)CCl)c1cccc(Cl)c1` (configuration not stated), the inhibition is 100%. Next, `O=C(CCl)N1CCN(S(=O)(=O)c2ccc3ccccc3c2)CC1`: 100%.

With `N#CCCN(C(=O)CCl)c1cccc(Cl)c1`, the inhibition is 69% (inactive).

For the compound `O=C(CCl)N(Cc1ccccc1)c1ccccc1`, the inhibition is 56% (inactive).

On to `COc1cc2c(cc1OC)C(c1ccccc1)N(C(=O)CCl)CC2` (configuration not stated), for which the inhibition is 81% (inactive). With `CC(=O)n1cc(N(C(=O)CCl)c2ccc(C)cc2)c2ccccc21`, the inhibition is 70% (inactive). To `C=CCOc1ccccc1CN(C(=O)CCl)c1ccc2c(c1)OCO2` belongs 35% (inactive); to `Cc1ccc2c(c1)c(=O)c1c3n2CCN(C(=O)CCl)C3CC1` (configuration not stated), 57% (inactive). To `CC(=O)n1cc(N(C(=O)CCl)c2ccc(Cl)cc2)c2ccccc21` belongs 38% (inactive); to `COc1ccc(N(Cc2cc(=O)[nH]c3ccccc23)C(=O)CCl)cc1`, 38% (inactive); to `O=C(CCl)N(c1ccc(Cl)cc1)c1c[nH]c2ccccc12`, 23% (inactive). To `COc1ccc(N(C(=O)CCl)C(C(=O)NC2CCCCC2)c2cccnc2)cc1` (configuration not stated) belongs 97%; to `O=Cc1[nH]c2ccccc2c1N(C(=O)CCl)c1ccc([N+](=O)[O-])cc1`, 75% (inactive). As for `CC1CCCN(C(=O)CCl)C1` (configuration not stated), the inhibition was 34% (inactive). Next, `CC(C)CCn1c(=O)c2ccccc2n2c(CCl)nnc12`: 87% (inactive); `CCCCCCCN(C(=O)CCl)c1ccccc1C`: 51% (inactive).

In the case of `Cc1nn(-c2ccc(Cl)cc2)c2[nH]c(CCl)cc(=O)c12`, the inhibition was 26% (inactive). To `Cc1ccc(N(C(=O)CCl)C(C(=O)NC2CCCCC2)c2cccnc2)cc1C` (configuration not stated) belongs 76% (inactive); to `COc1ccc(N(C(=O)CCl)C(C(=O)NCCc2ccccc2)c2cccs2)cc1Cl` (configuration not stated), 100%; to `O=C(CCl)N(Cc1cc(=O)[nH]c2ccccc12)c1ccccc1`, 38% (inactive). To `COc1cccc(-c2nc(CCl)cs2)c1` belongs 50% (inactive).

Consider `CCC1(CC)Cc2ccccc2-c2nc(CCl)[nH]c(=O)c21`, for which the inhibition is 84% (inactive). Next, `CC(=O)n1cc(N(C(=O)CCl)c2ccccc2)c2ccccc21`: 0% (inactive); `Cc1nn(-c2ccccc2)c(Cl)c1CN(C(=O)CCl)c1ccc(Cl)cc1`: 93%; `COc1ccc(N(C(=O)CCl)C(C(=O)NCCc2ccccc2)c2cccs2)cc1` (configuration not stated): 86% (inactive). `COc1ccc(CN(CCC(c2ccccc2)c2ccc(OC(C)C)cc2)C(=O)CCl)cc1OC` (configuration not stated): the inhibition was 81% (inactive). As for `Cc1nn(-c2ccccc2)c(Cl)c1CN(C(=O)CCl)c1cccc2ccccc12`, the inhibition is 34% (inactive). To `CC(C)N(CC(=O)Nc1ccc(Cl)cc1C(F)(F)F)C(=O)CCl` belongs 7% (inactive); to `Cc1ccc2c(c1)c1c3n2CCN(C(=O)CCl)C3CCC1` (configuration not stated), 96%. Turning to `COc1ccc(C(C(=O)NC2CCCCC2)N(C(=O)CCl)c2cccc(Cl)c2)cc1` (configuration not stated), the inhibition was 100%.

Turning to `COc1ccc(C(C(=O)NC2CCCCC2)N(C(=O)CCl)c2ccc(Cl)cc2)cc1` (configuration not stated), the inhibition was 100%.

In the case of `O=C(CCl)N(C/C=C/c1ccccc1)c1ccc2c(c1)OCCO2`, the inhibition was 58% (inactive). In the case of `CCc1ccc(-c2nc(CCl)cs2)cc1`, the inhibition was 40% (inactive).

For `O=C(NC1CCCCC1)C(c1cccnc1)N(C(=O)CCl)c1ccc(F)cc1` (configuration not stated), the inhibition is 100%.

On to `COc1ccc(C(C(=O)NC2CCCCC2)N(C(=O)CCl)c2ccc(C)cc2)cc1` (configuration not stated), for which the inhibition is 82% (inactive). Next, `O=c1cc(CCl)nc2scc(-c3ccccc3)n12`: 22% (inactive); `CCOC(=O)c1sc(N(Cc2ccccc2)C(=O)CCl)nc1C`: 82% (inactive); `O=C(NC1CCCC1)C(c1ccc(F)cc1)N(Cc1ccccc1Cl)C(=O)CCl` (configuration not stated): 61% (inactive). To `CCC(C)N(CC(=O)Nc1cccc(C)c1C)C(=O)CCl` (configuration not stated) belongs 26% (inactive); to `CN(Cc1ccc(Cl)s1)C(=O)CCl`, 83% (inactive); to `CCCCCCCN(C(=O)CCl)c1cccc(C)c1`, 58% (inactive). Next, `CCCCCCN(C(=O)CCl)c1ccccc1`: 43% (inactive); `COC(=O)CC1C(=O)NC2CCCCC2N1C(=O)CCl` (configuration not stated): 0% (inactive).

As to `Cc1cccc(CN2CCN(C(=O)CCl)CC2)c1`, the inhibition was 90%. Next, `COC(=O)C1Cc2ccccc2CN1C(=O)CCl` (configuration not stated): 40% (inactive). To `CC1CCc2c(sc3nc(C(C)(C)C)nc(N4CCN(C(=O)CCl)CC4)c23)C1` (configuration not stated) belongs 48% (inactive); to `Cc1ccc(N(Cc2cc(=O)[nH]c3ccccc23)C(=O)CCl)cc1`, 41% (inactive); to `O=c1cc(CCl)nc(Cc2c(Cl)cccc2Cl)[nH]1`, 59% (inactive).

`CCCN(C(=O)CCl)C1=CCCCC1`: the inhibition was 0% (inactive). To `COCCN(C(=O)CCl)C(C(=O)NC1CCCCC1)c1ccccc1C` (configuration not stated) belongs 25% (inactive); to `O=C(CCl)N(CCc1ccccc1)CCc1ccccc1`, 57% (inactive).

Turning to `O=C(CCl)N(c1ccccc1)C1CCCCC1`, the inhibition was 24% (inactive). As for `COC(CN(C(=O)CCl)C(C(=O)NC1CCCCC1)c1ccccc1C)OC` (configuration not stated), the inhibition was 0% (inactive). To `O=S(=O)(c1ccc(Cl)cc1)N1CCC2(CC1)CO2` belongs 94%; to `Cc1ccc(NC(=O)Cc2nc(CCl)cs2)cc1`, 55% (inactive); to `CCOc1ccc(CN(C)C(=O)CCl)cc1`, 47% (inactive).

For `CC1CCN(C(=O)CCl)CC1`, the inhibition was 53% (inactive).
